From ChEMBL document CHEMBL1649187, “New plasmid-mediated quinolone resistance gene, qnrC, found in a clinical isolate of Proteus mirabilis” (2009)
Converted amounts (≈) assume the structure as drawn.

Columns and labels:
Format in all cases: functional
[1] = test system: Escherichia coli; test: Antimicrobial activity against Escherichia coli J53 by CLSI agar dilution method
[2] = test system: Proteus mirabilis; test: Antimicrobial activity against Proteus mirabilis 06-489 isolated from infected human urinary tract by CLSI agar dilution method
[3] = test system: Escherichia coli; test: Antimicrobial activity against Escherichia coli J53 transconjugated with Proteus mirabilis pHS10 carrying qnrC gene by CLSI agar dilution method
[4] = test system: Proteus mirabilis; test: Antimicrobial activity against Proteus mirabilis 06-489 isolated from infected human urinary tract by Etest; conditions: 06-489, Urine
[5] = test system: Escherichia coli; test: Antimicrobial activity against Escherichia coli TOP10 harboring pHS12 carrying ATG to ACG substituted qnrC gene by CLSI agar dilution method
[6] = test system: Escherichia coli; test: Antimicrobial activity against Escherichia coli TOP10 harboring pHS12 carrying qnrC gene by CLSI agar dilution method
[7] = test system: Escherichia coli; test: Antimicrobial activity against Escherichia coli J53 by Etest
[8] = test system: Escherichia coli; test: Antimicrobial activity against Escherichia coli TOP10 harboring pHS12 carrying ATT to ATG substituted qnrC gene by CLSI agar dilution method
[9] = test system: Escherichia coli; test: Antimicrobial activity against Escherichia coli J53 transconjugated with Proteus mirabilis pHS10 carrying qnrC gene by Etest
[10] = test system: Escherichia coli; test: Antimicrobial activity against Escherichia coli TOP10 harboring pHS12 carrying TTG to TCG substituted qnrC gene by CLSI agar dilution method
[11] = test system: Escherichia coli; test: Antimicrobial activity against Escherichia coli ATCC 25922 by CLSI agar dilution method
[12] = test system: Escherichia coli; test: Antimicrobial activity against Escherichia coli TOP10 harboring pHS12 carrying ATT to TTA substituted qnrC gene by CLSI agar dilution method
[13] = test system: Escherichia coli; test: Antimicrobial activity against Escherichia coli TOP10 harboring pHS12 carrying TTG to TTA substituted qnrC gene by CLSI agar dilution method
[14] = test system: Escherichia coli; test: Antimicrobial activity against Escherichia coli TOP10 harboring pHS12 carrying TTG to ATG substituted qnrC gene by CLSI agar dilution method

Row | Compound | MIC [1] [µg/mL] | MIC ([2]; 06-489, Urine) [µg/mL] | MIC [3] [µg/mL] | further results
1 | CO/N=C(\C(=O)N[C@@H]1C(=O)N2C(C(=O)O)=C(COC(C)=O)CS[C@H]12)c1csc(N)n1 [CEFOTAXIME] | ≤ 0.06 | ≤ 0.06 | ≤ 0.06 | –
2 | O=C(O)c1cn(C2CC2)c2cc(N3CCNCC3)c(F)cc2c1=O [CIPROFLOXACIN] | – | – | – | MIC [4]: 0.25 µg/mL (≈ 0.754 µM)
3 | CCn1cc(C(=O)O)c(=O)c2ccc(C)nc21 [NALIDIXIC ACID] | – | – | – | MIC [5]: 4 µg/mL (≈ 17.2 µM); MIC [6]: 4 µg/mL (≈ 17.2 µM); MIC [7]: 4 µg/mL (≈ 17.2 µM); MIC [8]: 4 µg/mL (≈ 17.2 µM); MIC [9]: 16 µg/mL (≈ 68.9 µM); MIC [4]: 16 µg/mL (≈ 68.9 µM); MIC [10]: 1.5 µg/mL (≈ 6.46 µM); MIC [11]: 1 µg/mL (≈ 4.31 µM); MIC [12]: 3 µg/mL (≈ 12.9 µM); MIC [13]: 1 µg/mL (≈ 4.31 µM); MIC [14]: 4 µg/mL (≈ 17.2 µM)
4 | GENTAMICIN | 0.125 | – | 4 | MIC ([2]; Urine): 16 µg/mL
5 | CO/N=C(\C(=O)N[C@@H]1C(=O)N2C(C(=O)O)=C(COC(N)=O)CS[C@H]12)c1ccco1 [CEFUROXIME] | 8 (≈ 18.9 µM) | 4 (≈ 9.43 µM) | 8 (≈ 18.9 µM) | –
6 | O=C(N[C@H](CO)[C@H](O)c1ccc([N+](=O)[O-])cc1)C(Cl)Cl [CHLORAMPHENICOL] | 8 (≈ 24.8 µM) | 16 (≈ 49.5 µM) | 64 (≈ 198 µM) | –
7 | COc1cc(Cc2cnc(N)nc2N)cc(OC)c1OC [TRIMETHOPRIM] | 0.25 (≈ 0.861 µM) | > 128 | > 128 | –
8 | CO[C@@]1(NC(=O)Cc2cccs2)C(=O)N2C(C(=O)O)=C(COC(N)=O)CS[C@@H]21 [CEFOXITIN] | 4 (≈ 9.36 µM) | 2 (≈ 4.68 µM) | 4 (≈ 9.36 µM) | –
9 | NCC[C@H](O)C(=O)N[C@@H]1C[C@H](N)[C@@H](O[C@H]2O[C@H](CN)[C@@H](O)[C@H](O)[C@H]2O)[C@H](O)[C@H]1O[C@H]1O[C@H](CO)[C@@H](O)[C@H](N)[C@H]1O [AMIKACIN] | 0.25 (≈ 0.427 µM) | 8 (≈ 13.7 µM) | 0.5 (≈ 0.854 µM) | –
10 | CC(C)(O/N=C(\C(=O)N[C@@H]1C(=O)N2C(C(=O)[O-])=C(C[n+]3ccccc3)CS[C@H]12)c1csc(N)n1)C(=O)O [CEFTAZIDIME] | ≤ 0.06 | ≤ 0.06 | 0.06 (≈ 0.11 µM) | –
11 | Cc1cc(NS(=O)(=O)c2ccc(N)cc2)no1 [SULFAMETHOXAZOLE] | 16 (≈ 63.2 µM) | > 1020 | > 1020 | –
12 | C[C@H]1COc2c(N3CCN(C)CC3)c(F)cc3c(=O)c(C(=O)O)cn1c23.C[C@H]1COc2c(N3CCN(C)CC3)c(F)cc3c(=O)c(C(=O)O)cn1c23.O [LEVOFLOXACIN] | – | – | – | MIC [5]: 0.19 µg/mL; MIC [6]: 0.19 µg/mL; MIC [7]: 0.023 µg/mL; MIC [8]: 0.125 µg/mL; MIC [9]: 0.25 µg/mL; MIC [4]: 0.5 µg/mL; MIC [11]: 0.006 µg/mL; MIC [12]: 0.125 µg/mL; MIC [13]: 0.006 µg/mL; MIC [14]: 0.19 µg/mL
13 | CN(C)[C@@H]1C(O)=C(C(N)=O)C(=O)[C@@]2(O)C(O)=C3C(=O)c4c(O)cccc4[C@@](C)(O)[C@H]3C[C@@H]12 [TETRACYCLINE] | 1 (≈ 2.25 µM) | 128 (≈ 288 µM) | 128 (≈ 288 µM) | –
14 | CC1(C)S[C@@H]2[C@H](NC(=O)[C@H](N)c3ccccc3)C(=O)N2[C@H]1C(=O)O [AMPICILLIN] | 4 (≈ 11.4 µM) | 64 (≈ 183 µM) | 128 (≈ 366 µM) | –
